Experimental data published in US6528528B2 (Warner-Lambert Company, priority 1997, dated 2003).

Key:
monocytes = assay: Monocyte Recruitment Assay (chemotaxis of monocytes); type: cell-based; conditions: Table 3; for EC50: Monocyte, read-out: Monocyte Recruitment Assay ED50
Protocol: Monocyte Recruitment Assay
The recruitment or chemotaxis of monocytes was assayed by methods well known to those skilled in the art. In particular, the method set forth in J. Clin. Invest., 1988;82:1853-1863, which is hereby incorporated by reference, was used.

[1] = test system: Rabbits fed a 0.25% cholesterol, 3% peanut oil, 3% coconut oil diet; assay: In vivo tests: aortic atherosclerotic lesions in rabbits fed a cholesterol diet; conditions: 10 mg/kg as diet admix, 12 weeks
Protocol: The entire descending thoracic aorta was assayed for its cholesteryl ester (CE), free cholesterol phospholipid content. The lipids were extracted in chloroform:methanol (2:1) by the procedure of Folch, et al. (Folch J., Lees M., Sloane-Stanley G. H. A simple method for the isolation and purification of total lipids from animal tissue, J. Biol. Chem., 1957;226:497-509) and 300-500 μL of an internal standard, i.e., 200 mg/ml solution of 4-hydroxy-cholesterol in ethyl acetate:acetone (2:1), was added to the extracts of the thoracic aortic samples. After extraction, the organic phase was dried under nitrogen and redissolved in isooctane/tetrahydro-furan (97:3). The lipid content and composition of the thoracic aorta were measured using an HPLC method.
For histologic evaluation of the aortic arch lesions and for quantification of aortic arch cross-sectional lesion area, a 1 cm segment of the ascending aorta distal to the aortic valves was fixed in 10% neutral buffered formalin for 24 hours. The vessels were dehydrated, cleared in xylene, and infiltrated with molten paraffin (<60° C.) using a Tissue Tek VIP autoprocessor (Miles Scientific, Elkhart, Ind.). The tissue segments were embedded in paraffin and sectioned at 5 μm with a Reichert-Jung microtome (Baxter, McGraw Park, Ill.). In order to obtain a thorough representation of the histologic appearance of the aortic arch lesions, 3 ribbons of 20 sections each were cut. Each ribbon of sections was spaced approximately 100 μm apart. Three pairs of sections, i.e., 1 pair from each ribbon, were affixed to cleaned 3-aminopropyltriethoxy-silane coated glass slides and stored until stained. The general histologic character was evaluated in Verhoeff's elastica stained sections.
The gross extent of atherosclerosis within the aortic arch was measured. In addition, sections of the aortic arch, a site of hypercholesterolemia-induced lesions, stained using the Verhoeff's elastica procedure were used for quantification of lesion cross-sectional. The internal elastic lamina (IEL) was identified as a blue-black ring and images of that region were collected using a digital camera. The area within the IEL was quantified using the Image Pro Plus image analysis software. The area of the lumen of the aortic arch was also quantified in a similar fashion. Lesion area was defined as the difference between the area circumscribed by the internal elastic lamina and the lumen area.
Aortic arch lesion extent was also measured. The area distal to the 1 cm segment taken for histologic evaluation to the first intercostal ostia was removed from the animal, opened longitudinally and images of the surface of the vessel was collected using a digital camera. The lesions were identified as raised, opaque areas and their area was determined using the Image Pro Plus image analysis software. The area of the entire aortic arch was also determined. The percentage of aortic arch covered by atherosclerotic lesions was calculated.

[2] = target: T1, rabbit reticulocyte 15-LO (Oryctolagus cuniculus, UniProt P12530); assay: Rabbit Reticulocyte 15-LO Assay (h15LO); type: biochemical; conditions: Table 2; for IC50: 2U rabbit reticulocyte 15-LO, 174 μM linoleic acid, 15 minutes at 4° C.
T1 construct: Fifteen-lipoxygenase was obtained from phenylhydrazine-treated rabbits and purified per the method of Rapoport; from tissue; host or cells: reticulocytes of phenylhydrazine-treated rabbits
T1 sequence (P12530 1-663): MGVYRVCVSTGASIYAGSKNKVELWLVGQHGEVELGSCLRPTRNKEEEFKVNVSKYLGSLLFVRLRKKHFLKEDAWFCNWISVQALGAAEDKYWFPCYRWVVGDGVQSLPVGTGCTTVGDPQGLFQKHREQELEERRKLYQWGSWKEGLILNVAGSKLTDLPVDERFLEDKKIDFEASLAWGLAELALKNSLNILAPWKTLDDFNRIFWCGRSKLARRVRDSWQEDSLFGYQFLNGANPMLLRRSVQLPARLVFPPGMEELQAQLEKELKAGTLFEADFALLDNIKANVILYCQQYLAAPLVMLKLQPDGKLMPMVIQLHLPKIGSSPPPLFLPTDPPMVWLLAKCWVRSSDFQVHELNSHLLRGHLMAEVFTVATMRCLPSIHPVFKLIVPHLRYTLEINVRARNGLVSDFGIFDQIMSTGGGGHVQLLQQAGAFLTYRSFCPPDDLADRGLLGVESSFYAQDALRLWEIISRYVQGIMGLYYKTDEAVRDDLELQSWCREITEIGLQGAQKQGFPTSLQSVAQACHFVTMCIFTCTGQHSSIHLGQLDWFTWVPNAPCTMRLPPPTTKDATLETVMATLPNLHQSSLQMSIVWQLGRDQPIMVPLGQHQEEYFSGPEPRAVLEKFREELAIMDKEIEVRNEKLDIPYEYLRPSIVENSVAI
How it was run: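 Purified rabbit reticulocyte 15-LO (2U) incubated with inhibitor and 174 μM linoleic acid in PBS with 0.2% Na cholate for 15 minutes at 4° C. 13-HPODE quantified by peak area against 13-HODE standard curve; % inhibition relative to uninhibited reaction.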

Compound	EC50 (monocytes)	melting point	IC50 [2]	inhibition at 10 µM ([2]; 0.25 h, @ 10 μM, read-out: h15LO % @ 10 μM)	Aortic Arch Cross-Sectional Lesion Area (% Δ from Control) [1]	Aortic Arch Lesion Extent (% Δ from Control) [1]	Aortic Cholesteryl Ester Content (% Δ from Control) [1]	Monocyte Recruitment Assay % @ 30 μM (monocytes)
O=C(Nc1ccccc1)c1ccc(O)c(Nc2cc(Cl)cc(Cl)c2)c1 [Example 56, 4-Hydroxy-3-(3,5-dichloro-phenylamino)-N-phenyl-benzamide]	2600 nM	160 to 162 °C	18 nM					
COc1ccc(C(=O)Nc2ccccc2)cc1Nc1cc(Cl)cc(Cl)c1 [Example 35, 3-(3,5-Dichloro-phenylamino)-4-methoxy-N-phenyl-benzamide]	26300 nM		7 nM					
COc1ccc(C(=O)Nc2ccccc2)cc1NCc1cc(Cl)cc(Cl)c1 [Example 51, 3-(3,5-Dichloro-benzylamino)-4-methoxy-N-phenyl-benzamide]	20000 nM			69%				
COc1ccc(C(=O)Nc2ccccc2)cc1NC(=S)Nc1ccc(C)cc1 [Example 69, 4-Methoxy-N-phenyl-3-(-3-p-tolyl-thioureido)-benzamide]			32 nM					13% @ 30 μM

Second part, led by results:

EC50 (monocytes)	melting point	IC50 [2]	inhibition at 10 µM ([2]; 0.25 h, @ 10 μM, read-out: h15LO % @ 10 μM)	Compound	Aortic Arch Cross-Sectional Lesion Area (% Δ from Control) [1]	Aortic Arch Lesion Extent (% Δ from Control) [1]	Aortic Cholesteryl Ester Content (% Δ from Control) [1]	Monocyte Recruitment Assay % @ 30 μM (monocytes)
17600 nM	195 to 197 °C	8.6 nM		COc1ccc(C(=O)Nc2ccccc2)cc1NC(=S)Nc1cc(Cl)cc(Cl)c1 [Example 60, 3-[3-(3,5-Dichlorophenyl)-thioureido]-4-methoxy-N-phenyl-benzamide]	+84 % Δ from Control	+40 % Δ from Control	+59 % Δ from Control	
2300 nM	170 to 174 °C	42 nM		COc1ccc(C(=O)Nc2ccccc2)cc1NC(=S)Nc1c(F)c(F)cc(F)c1F [Example 68, 4-Methoxy-N-phenyl-3-[3-(2,3,5,6-tetrafluoro-phenyl)-thioureido]-benzamide]				
	194 to 195 °C	39 nM		COc1ccc(C(=O)Nc2ccccc2)cc1Nc1ccccc1 [Example 28, 4-Methoxy-3-phenylainino-N-phenyl-benzamide]				25% @ 30 μM
	188 to 189 °C	7 nM		COc1ccc(C(=O)Nc2ccccc2)cc1NC(=S)Nc1cccc([N+](=O)[O-])c1 [Example 66, 3-[3-(3-Nitrophenyl)-thioureido]-4-methoxy-N-phenyl-benzamide]				38% @ 30 μM
22700 nM	179 to 180 °C	42 nM		COc1ccc(C(=O)Nc2ccccc2)cc1NC(=S)Nc1ccc(Cl)cc1 [Example 65, 3-[3-(4-Chlorophenyl)-thioureido]-4-methoxy-N-phenyl-benzamide]				
